Laboratory results published in patent publication US6586393B2, “Antibiotics GE 23077, pharmaceutically acceptable salts and compositions, and use thereof” (priority 2000, dated 2003).
Read-outs that look alike come from different tables or passages of the source.

Columns and labels:
M. catarrhalis = experiment: Activity of concentrated HPLC fractions of the complex against M. catarrhalis; format: cell-based, Moraxella catarrhalis; details: eluates of HPLC fractionation of the complex, concentrated under vacuum
E. coli RNA polymerase = biological target: T1, E. coli RNA polymerase (Escherichia coli, UniProt P0A8T7+P0A8V2); experiment: Inhibition of RNA polymerase, cell free transcription assay (3H-UTP incorporation); format: biochemical; details: 37° C., 15 minutes
T1 construct: purchased Epicentre Technology; Madison Wis
Description: The inhibition of RNA polymerase was determined in a cell free transcription assay performed in standard U-bottom 96-well plates. The [H^3]-UTP incorporation in RNA was measured in the material precipitated upon addition of trichloroacetic acid (TCA). The reaction mixture contained 50 mM Tris-HCl (pH8), 50 mM KCl, 10 mM MgCl2, 0.1 mM EDTA, 5 mM dithiothreitol (DTT), 10 μg/ml BSA, 20: g/ml calf thymus DNA, 1 mM ATP, 1 mM CTP, 1 mM GTP, 0.5 mCi ^3H-UTP and 0.5 U of E. coli RNA polymerase enzyme (Epicentre Technology; Madison Wis.). 5 μl of the tested solution were added to 45 μl of reaction mixture, incubated at 37° C. for 15 minutes and then quenched with 150 μl of ice-cold 10% (w/v) TCA. After 30 min in ice, the well content was collected on glass-fiber filters (Filtermat A, Wallac) using a 96 wells cell harvester (Wallac) and radioactivity was determined in a β-Plate scintillation counter (Wallac). Count per min (CPM) values are transformed in % of RNA polymerase inhibition by using the following formula:
% of RNA polymerase=100−[(CPM compound−CPM blank)/(CPM control−CPM blank)]*100
where: CPM compound is CPM in well with compound; CPM blank is CPM average in wells without enzyme template and CPM control is CPM average in wells without compound.

[1] = Conversion of factors A2 and B2 into A1 and B1 in DMSO (NMR); format: physicochemical; details: room temperature
Source text: The GE23077 complex is constituted of two couples of isomers: factors A1, A2 and factors B1, B2. It was observed that the individual pure Factor A1 and Factor A2, when kept in water solution or in mixtures of water miscible solvents and water solutions, reach an equilibrium state between them. […] The equilibration rate was accelerated at acidic and basic pHs. […] Accordingly, if recorded after complete conversion, the spectra relating to factors A2 and B2 correspond to the ones of the factors A1 and B1, respectively.

T1 sequence (P0A8V2 whole entry): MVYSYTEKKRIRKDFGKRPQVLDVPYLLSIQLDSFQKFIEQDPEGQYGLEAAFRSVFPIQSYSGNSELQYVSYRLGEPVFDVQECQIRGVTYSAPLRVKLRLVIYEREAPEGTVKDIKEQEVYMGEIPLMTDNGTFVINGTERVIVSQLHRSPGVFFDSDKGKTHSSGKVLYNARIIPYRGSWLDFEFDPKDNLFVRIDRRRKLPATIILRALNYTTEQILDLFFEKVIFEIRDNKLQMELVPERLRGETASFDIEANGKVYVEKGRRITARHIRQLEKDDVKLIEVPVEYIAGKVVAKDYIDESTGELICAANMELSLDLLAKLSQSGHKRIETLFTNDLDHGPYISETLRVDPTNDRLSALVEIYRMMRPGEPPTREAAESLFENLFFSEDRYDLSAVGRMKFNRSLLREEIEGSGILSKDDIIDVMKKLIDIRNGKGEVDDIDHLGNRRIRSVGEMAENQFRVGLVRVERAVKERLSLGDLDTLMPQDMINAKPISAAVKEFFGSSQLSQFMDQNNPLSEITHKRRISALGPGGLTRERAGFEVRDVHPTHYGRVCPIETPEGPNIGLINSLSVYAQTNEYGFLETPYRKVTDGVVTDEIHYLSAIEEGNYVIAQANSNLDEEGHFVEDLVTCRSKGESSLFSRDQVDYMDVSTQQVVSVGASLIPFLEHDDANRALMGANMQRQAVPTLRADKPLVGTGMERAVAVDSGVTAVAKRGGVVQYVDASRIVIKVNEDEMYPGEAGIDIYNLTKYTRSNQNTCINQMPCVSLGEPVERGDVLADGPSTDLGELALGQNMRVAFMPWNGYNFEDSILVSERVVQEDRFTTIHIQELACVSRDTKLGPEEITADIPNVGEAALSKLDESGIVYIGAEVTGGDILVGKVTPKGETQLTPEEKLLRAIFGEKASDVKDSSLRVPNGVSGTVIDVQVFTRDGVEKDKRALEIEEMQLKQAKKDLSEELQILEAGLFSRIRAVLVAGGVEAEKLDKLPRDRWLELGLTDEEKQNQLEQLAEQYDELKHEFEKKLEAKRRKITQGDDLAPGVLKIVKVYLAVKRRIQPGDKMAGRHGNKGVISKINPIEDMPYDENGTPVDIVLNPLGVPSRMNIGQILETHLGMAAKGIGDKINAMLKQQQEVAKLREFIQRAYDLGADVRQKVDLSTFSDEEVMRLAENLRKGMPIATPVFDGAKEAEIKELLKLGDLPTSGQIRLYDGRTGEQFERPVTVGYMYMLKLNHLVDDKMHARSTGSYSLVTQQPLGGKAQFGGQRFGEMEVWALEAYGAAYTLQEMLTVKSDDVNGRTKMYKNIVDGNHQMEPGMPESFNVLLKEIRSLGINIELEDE
T1 sequence (P0A8T7 whole entry): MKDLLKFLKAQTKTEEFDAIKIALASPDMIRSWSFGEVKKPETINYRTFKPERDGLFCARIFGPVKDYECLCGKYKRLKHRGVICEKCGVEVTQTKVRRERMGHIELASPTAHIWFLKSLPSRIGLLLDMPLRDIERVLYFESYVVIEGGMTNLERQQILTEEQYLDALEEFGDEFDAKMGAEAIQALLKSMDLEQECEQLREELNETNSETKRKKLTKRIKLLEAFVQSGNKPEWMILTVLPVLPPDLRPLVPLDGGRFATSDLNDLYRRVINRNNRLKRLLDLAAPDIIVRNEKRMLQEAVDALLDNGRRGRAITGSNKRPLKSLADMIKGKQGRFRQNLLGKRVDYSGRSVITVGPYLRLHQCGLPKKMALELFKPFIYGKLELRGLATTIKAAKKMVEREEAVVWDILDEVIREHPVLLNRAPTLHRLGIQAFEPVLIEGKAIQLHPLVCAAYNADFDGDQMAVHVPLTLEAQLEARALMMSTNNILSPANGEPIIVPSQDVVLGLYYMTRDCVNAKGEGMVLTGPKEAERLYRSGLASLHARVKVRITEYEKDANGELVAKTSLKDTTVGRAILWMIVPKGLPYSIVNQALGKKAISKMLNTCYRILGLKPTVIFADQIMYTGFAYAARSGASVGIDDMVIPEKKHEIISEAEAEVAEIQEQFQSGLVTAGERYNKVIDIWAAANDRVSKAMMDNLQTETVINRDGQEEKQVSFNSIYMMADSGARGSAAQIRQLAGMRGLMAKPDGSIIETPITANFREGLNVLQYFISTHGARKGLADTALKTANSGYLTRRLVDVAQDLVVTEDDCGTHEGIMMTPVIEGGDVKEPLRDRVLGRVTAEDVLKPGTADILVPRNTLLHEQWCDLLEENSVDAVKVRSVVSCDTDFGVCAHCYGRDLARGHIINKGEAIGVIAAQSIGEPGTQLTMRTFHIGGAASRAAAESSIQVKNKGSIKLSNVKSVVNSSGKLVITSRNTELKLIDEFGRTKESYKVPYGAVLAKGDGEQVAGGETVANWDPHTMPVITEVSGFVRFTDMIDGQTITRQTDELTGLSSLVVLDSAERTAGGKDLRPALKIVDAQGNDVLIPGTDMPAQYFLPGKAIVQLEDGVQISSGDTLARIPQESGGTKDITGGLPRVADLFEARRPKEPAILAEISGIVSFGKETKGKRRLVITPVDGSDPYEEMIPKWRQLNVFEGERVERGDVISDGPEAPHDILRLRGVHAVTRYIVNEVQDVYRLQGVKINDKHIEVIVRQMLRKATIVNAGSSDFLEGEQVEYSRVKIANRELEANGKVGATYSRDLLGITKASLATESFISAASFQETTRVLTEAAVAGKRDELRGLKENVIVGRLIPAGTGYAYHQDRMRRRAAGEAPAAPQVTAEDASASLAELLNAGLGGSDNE
T1 sequence (P0A7Z4 whole entry partner): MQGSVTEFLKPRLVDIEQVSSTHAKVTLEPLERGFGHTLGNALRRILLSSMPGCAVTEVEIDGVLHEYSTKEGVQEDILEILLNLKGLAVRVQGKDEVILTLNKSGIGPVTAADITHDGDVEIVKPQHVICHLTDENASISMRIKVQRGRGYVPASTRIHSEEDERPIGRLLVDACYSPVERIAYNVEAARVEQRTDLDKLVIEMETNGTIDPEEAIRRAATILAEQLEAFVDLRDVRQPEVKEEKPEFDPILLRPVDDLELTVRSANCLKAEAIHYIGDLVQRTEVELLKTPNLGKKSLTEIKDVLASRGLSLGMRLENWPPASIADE
T1 sequence (P0A800 whole entry partner): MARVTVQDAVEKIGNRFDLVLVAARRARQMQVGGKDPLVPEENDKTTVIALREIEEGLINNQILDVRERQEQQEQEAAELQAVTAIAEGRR

SMILES | Inhibition of M. catarrhalis by HPLC fractions containing the separated factors (M. catarrhalis) | IC50 (E. coli RNA polymerase; IC50 of E. coli RNA polymerase) [nM] | Time for full conversion into factor A1 / B1 [1] [h] | Time for full conversion into factor A1 / B1 (in words) [1] | IC50 (E. coli RNA polymerase; read-out: IC50 of E. coli RNA polymerase (converted)) [nM]
CC=C(C)C(=O)NCC1NC(=O)C(C(=O)O)NC(=O)C(O)CNC(=O)C(C(C)O)NC(=O)C(C(O)C(O)C(N)=O)NC(=O)C(C(C)C)NC(=O)C(CO)NC1=O (single isomer, unassigned) [Factor A1] | inhibited the test microorganism | 187 |  |  | 
CC=C(C)C(=O)NCC1NC(=O)C(C(=O)O)NC(=O)C(O)CNC(=O)C(C(C)O)NC(=O)C(C(O)C(O)C(N)=O)NC(=O)C(C(C)C)NC(=O)C(CO)NC1=O (single isomer, unassigned) [Factor A2] | inhibited the test microorganism | 43.5 | 12 |  | 
CC(C)CC(=O)NCC1NC(=O)C(C(=O)O)NC(=O)C(O)CNC(=O)C(C(C)O)NC(=O)C(C(O)C(O)C(N)=O)NC(=O)C(C(C)C)NC(=O)C(CO)NC1=O (single isomer, unassigned) [Factor B1] | inhibited the test microorganism | 124 |  |  | 
CC(C)CC(=O)NCC1NC(=O)C(C(=O)O)NC(=O)C(O)CNC(=O)C(C(C)O)NC(=O)C(C(O)C(O)C(N)=O)NC(=O)C(C(C)C)NC(=O)C(CO)NC1=O (single isomer, unassigned) [Factor B2] | inhibited the test microorganism |  |  | few minutes | 24.8
